How the values were obtained:
Type in all cases: in vivo
Leptochloa chinensis [1] = test: Greenhouse herbicidal activity and crop safety comparison (Test Example 2)
How it was run: (§1)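 Fresh weight inhibition, banded into grades A to E (E <20%), was rated 14-21 days after foliar spraying of 3-6 leaf plants, or 14-30 days after a soil spray applied 24 h post-sowing.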

[2] = test system: Oryza sativa subsp. japonica; test: as above
How it was run: as §1

Echinochloa crusgalli [3] = test: as above
How it was run: as §1

[4] = test system: Oryza sativa subsp. indica; test: as above
How it was run: as §1

Digitaria sanguinalis = test: Greenhouse herbicidal activity assay, post-emergence; details: Post-emergence test, rate 150 g a.i./hm^2, grade by fresh weight inhibition rate
How it was run: (§2)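 Letter grades (A: ≥80% to 100%; C: ≥40% to <60%; E: <20%) express fresh weight inhibition recorded 14-21 days post-spray. Weeds were treated on the leaves once they reached 3-6 leaves in chamber-grown pots, allowed to dry naturally, then kept in the chamber.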

Leptochloa chinensis [5] = test: as above; details: Post-emergence test, rate 150 g a.i./hm^2, grade by fresh weight inhibition rate
How it was run: as §2

Cyperus iria = test: as above; details: Post-emergence test, rate 150 g a.i./hm^2, grade by fresh weight inhibition rate
How it was run: as §2

Eclipta prostrata = test: as above; details: Post-emergence test, rate 150 g a.i./hm^2, grade by fresh weight inhibition rate
How it was run: as §2

Echinochloa crusgalli [6] = test: as above; details: Post-emergence test, rate 150 g a.i./hm^2, grade by fresh weight inhibition rate
How it was run: as §2

Compound	Leptochloa chinensis, control efficacy grading (fresh weight inhibition rate) (Leptochloa chinensis [1]; Rate 150 g/ha)	Oryza sativa subsp. japonica, grading of fresh weight inhibition rate (crop safety) ([2]; Rate 150 g/ha)	Echinochloa crusgalli, control efficacy grading (fresh weight inhibition rate) (Echinochloa crusgalli [3]; Rate 150 g/ha)	Oryza sativa subsp. indica, grading of fresh weight inhibition rate (crop safety) ([4]; Rate 150 g/ha)	Control efficacy grade, Digitaria sanguinalis (Digitaria sanguinalis)	Control efficacy grade, Leptochloa chinensis (Leptochloa chinensis [5])	Control efficacy grade, Cyperus iria (Cyperus iria)	Control efficacy grade, Eclipta prostrata (Eclipta prostrata)	Control efficacy grade, Echinochloa crusgalli (Echinochloa crusgalli [6])	inhibition at 150 g/ha (Leptochloa chinensis [1]; Dinebra chinensis, Rate 150 g/ha, read-out: Leptochloa chinensis, control efficacy grading (fresh weight inhibition rate)) [%]	inhibition at 150 g/ha (Echinochloa crusgalli [3]; Echinochloa crus-galli, Rate 150 g/ha, read-out: Echinochloa crusgalli, control efficacy grading (fresh weight inhibition rate)) [%]	pest or weed control at 150 g/ha (Digitaria sanguinalis; Digitaria sanguinalis, read-out: Control efficacy grade, Digitaria sanguinalis) [%]	pest or weed control at 150 g/ha (Leptochloa chinensis [5]; Dinebra chinensis, read-out: Control efficacy grade, Leptochloa chinensis) [%]	pest or weed control at 150 g/ha (Cyperus iria; Cyperus iria, read-out: Control efficacy grade, Cyperus iria) [%]	pest or weed control at 150 g/ha (Eclipta prostrata; Eclipta prostrata, read-out: Control efficacy grade, Eclipta prostrata) [%]	pest or weed control at 150 g/ha (Echinochloa crusgalli [6]; Echinochloa crus-galli, read-out: Control efficacy grade, Echinochloa crusgalli) [%]	Leptochloa chinensis, control efficacy grading (fresh weight inhibition rate) (Leptochloa chinensis [1]; Rate 250 g/ha)	Oryza sativa subsp. japonica, grading of fresh weight inhibition rate (crop safety) ([2]; Rate 250 g/ha)	Echinochloa crusgalli, control efficacy grading (fresh weight inhibition rate) (Echinochloa crusgalli [3]; Rate 250 g/ha)	Oryza sativa subsp. indica, grading of fresh weight inhibition rate (crop safety) ([4]; Rate 250 g/ha)
CCCS(=O)(=O)c1c(S(C)(=O)=O)ccc(C(=O)Nc2nnc(C)o2)c1Cl [Compound 3-5]	A (Fresh weight inhibition rate≥80% to 100%)	E (Fresh weight inhibition rate<20%)	A (Fresh weight inhibition rate≥80% to 100%)	E (Fresh weight inhibition rate<20%)	A (Fresh weight inhibition rate≥80% to 100%)	A (Fresh weight inhibition rate≥80% to 100%)	A (Fresh weight inhibition rate≥80% to 100%)	A (Fresh weight inhibition rate≥80% to 100%)	A (Fresh weight inhibition rate≥80% to 100%)	–	–	–	–	–	–	–	–	–	–	–
Cc1nnc(NC(=O)c2ccc(S(C)(=O)=O)c(S(=O)(=O)C(C)C)c2Cl)o1 [Compound 3-10, 2-chloro-3-(isopropylsulfonyl)-N-(5-methyl-1,3,4-oxadiazol-2-yl)-4-(methylsulfonyl)benzamide]	–	E (Fresh weight inhibition rate<20%)	–	E (Fresh weight inhibition rate<20%)	–	–	–	–	–	80 to 100	80 to 100	80 to 100	80 to 100	80 to 100	80 to 100	80 to 100	–	–	–	–
CCCCS(=O)(=O)c1c(S(C)(=O)=O)ccc(C(=O)Nc2nnc(C)o2)c1Cl [Compound 3-15]	–	–	–	–	B (Fresh weight inhibition rate≥260% to <80%)	B (Fresh weight inhibition rate≥260% to <80%)	B (Fresh weight inhibition rate≥260% to <80%)	A (Fresh weight inhibition rate≥80% to 100%)	B (Fresh weight inhibition rate≥260% to <80%)	–	–	–	–	–	–	–	A (Fresh weight inhibition rate≥80% to 100%)	E (Fresh weight inhibition rate<20%)	A (Fresh weight inhibition rate≥80% to 100%)	E (Fresh weight inhibition rate<20%)
Cc1nnc(NC(=O)c2ccc(S(C)(=O)=O)c(S(=O)(=O)CC(C)C)c2Cl)o1 [Compound 3-31]	–	–	–	–	A (Fresh weight inhibition rate≥80% to 100%)	A (Fresh weight inhibition rate≥80% to 100%)	A (Fresh weight inhibition rate≥80% to 100%)	A (Fresh weight inhibition rate≥80% to 100%)	B (Fresh weight inhibition rate≥260% to <80%)	–	–	–	–	–	–	–	A (Fresh weight inhibition rate≥80% to 100%)	E (Fresh weight inhibition rate<20%)	A (Fresh weight inhibition rate≥80% to 100%)	E (Fresh weight inhibition rate<20%)
Cc1nnc(NC(=O)c2ccc(S(C)(=O)=O)c(S(=O)(=O)CC3CC3)c2Cl)o1 [Compound 3-41]	A (Fresh weight inhibition rate≥80% to 100%)	E (Fresh weight inhibition rate<20%)	A (Fresh weight inhibition rate≥80% to 100%)	E (Fresh weight inhibition rate<20%)	A (Fresh weight inhibition rate≥80% to 100%)	A (Fresh weight inhibition rate≥80% to 100%)	A (Fresh weight inhibition rate≥80% to 100%)	A (Fresh weight inhibition rate≥80% to 100%)	A (Fresh weight inhibition rate≥80% to 100%)	–	–	–	–	–	–	–	–	–	–	–
Cc1nnc(NC(=O)c2ccc(S(C)(=O)=O)c(S(=O)(=O)C3CC3)c2Cl)o1 [Compound 3-81]	A (Fresh weight inhibition rate≥80% to 100%)	E (Fresh weight inhibition rate<20%)	A (Fresh weight inhibition rate≥80% to 100%)	E (Fresh weight inhibition rate<20%)	A (Fresh weight inhibition rate≥80% to 100%)	A (Fresh weight inhibition rate≥80% to 100%)	A (Fresh weight inhibition rate≥80% to 100%)	A (Fresh weight inhibition rate≥80% to 100%)	A (Fresh weight inhibition rate≥80% to 100%)	–	–	–	–	–	–	–	–	–	–	–
Cc1nnc(NC(=O)c2ccc(S(C)(=O)=O)c(S(=O)(=O)C3CCC3)c2Cl)o1 [Compound 3-86]	A (Fresh weight inhibition rate≥80% to 100%)	E (Fresh weight inhibition rate<20%)	A (Fresh weight inhibition rate≥80% to 100%)	E (Fresh weight inhibition rate<20%)	A (Fresh weight inhibition rate≥80% to 100%)	A (Fresh weight inhibition rate≥80% to 100%)	A (Fresh weight inhibition rate≥80% to 100%)	A (Fresh weight inhibition rate≥80% to 100%)	A (Fresh weight inhibition rate≥80% to 100%)	–	–	–	–	–	–	–	–	–	–	–
